From patent US5962314A, “Calcium receptor-active molecules” (priority 1997, dated 1999)
“Also recorded” adds a separate entry of the source. Read-outs that look alike come from different tables or passages of the source. Blank lines part the entries; values can stand above or below the compound they belong to.

Key:
Assay type in all cases: cell-based
[1] = target: T1, parathyroid cell calcium receptor (Bos taurus, UniProt P35384); assay: cell-based; conditions: for relative potency, in words: parathyroid cells; for EC50: increases in intracellular calcium, fura-2 loaded cells; for effect on mobilization elicited by extracellular divalent cations / effect on [Ca2+]i at low extracellular Ca2+: 100 μM; for effect on [Ca2+]i at low extracellular Ca2+: 0.5 mM extracellular Ca2+
T1 sequence (P35384 20-1085): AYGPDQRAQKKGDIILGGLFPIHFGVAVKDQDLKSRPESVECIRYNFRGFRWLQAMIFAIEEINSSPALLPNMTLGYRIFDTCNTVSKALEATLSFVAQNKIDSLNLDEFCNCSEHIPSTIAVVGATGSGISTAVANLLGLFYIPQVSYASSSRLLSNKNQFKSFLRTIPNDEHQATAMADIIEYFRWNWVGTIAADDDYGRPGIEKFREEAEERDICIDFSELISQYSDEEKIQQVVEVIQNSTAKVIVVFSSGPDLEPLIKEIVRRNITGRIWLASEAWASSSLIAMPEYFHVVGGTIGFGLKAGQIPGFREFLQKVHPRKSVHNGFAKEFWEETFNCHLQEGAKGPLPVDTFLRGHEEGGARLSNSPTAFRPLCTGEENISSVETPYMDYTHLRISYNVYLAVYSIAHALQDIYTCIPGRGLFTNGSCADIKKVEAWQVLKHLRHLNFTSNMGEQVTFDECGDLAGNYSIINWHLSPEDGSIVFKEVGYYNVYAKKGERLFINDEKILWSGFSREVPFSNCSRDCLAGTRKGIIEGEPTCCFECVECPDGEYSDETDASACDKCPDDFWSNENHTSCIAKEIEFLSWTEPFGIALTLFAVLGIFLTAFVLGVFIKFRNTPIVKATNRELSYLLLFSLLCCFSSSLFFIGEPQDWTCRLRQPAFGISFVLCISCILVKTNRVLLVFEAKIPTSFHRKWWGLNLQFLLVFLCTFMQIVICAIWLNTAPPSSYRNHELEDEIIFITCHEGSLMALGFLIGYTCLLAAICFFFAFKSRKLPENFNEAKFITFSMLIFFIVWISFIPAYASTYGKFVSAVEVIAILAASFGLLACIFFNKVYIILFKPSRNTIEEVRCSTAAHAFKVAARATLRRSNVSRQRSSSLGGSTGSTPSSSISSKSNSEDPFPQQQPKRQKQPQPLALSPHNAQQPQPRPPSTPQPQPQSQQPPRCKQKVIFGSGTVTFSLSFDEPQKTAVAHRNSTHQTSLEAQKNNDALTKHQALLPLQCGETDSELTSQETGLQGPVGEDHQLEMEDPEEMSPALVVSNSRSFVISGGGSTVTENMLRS

[2] = tested on: Ca2+ influx in parathyroid cells; assay: Ca2+ influx in bovine parathyroid cells; conditions: for effect on [Ca2+]i: 100 to 1000 μM, 2 mM CaCl2; for effect on extracellular Ca2+-elicited increases in [Ca2+]i: pretreatment
[3] = target: T2, bovine parathyroid cell calcium receptor (Bos taurus, UniProt P35384); assay: Cl- current in Xenopus oocytes expressing BoPCaR 1; conditions: for effect on inward currents: EGTA 100 μM, 9AC, A23187
T2 construct: expressed in transfected cells; host or cells: Xenopus laevis oocytes injected with BoPCaR 1 cRNA
T2 sequence (P35384 20-1085): T1 sequence (P35384 20-1085)
Protocol: Several pharmacological and biochemical criteria were used to identify this clone as encoding a bona fide bovine parathyroid Ca^2+ receptor. […] These responses increased markedly over a period of one to four days after injection of the eggs with cRNA prepared from the BoPCaR 1 cDNA. Furthermore, the ranges of the concentrations of the two cations eliciting this response were very similar to those shown previously to act on bovine parathyroid cells in vitro.
Xenopus oocytes were injected with BoPCaR 1, the 5.3 Kb cDNA encoding a bovine parathyroid cell calcium receptor as described in Example 25. After two to three days, Cl^- currents were examined in the oocytes using a two-electrode voltage clamp.
Xenopus oocytes were injected with BoPCaR 1 as described in Example 25. After two to three days, Cl^- currents were examined in the oocytes using two electrode voltage clamp.

relative potency, in words [1]: as potent as NPS 467
SMILES: COc1cccc(C(C)NCCC(c2ccccc2)c2ccccc2)c1 (racemic) [meta-Methoxyfendiline]

SMILES: NCCCCCCCCCCCCN [1,12-diaminododecane (DADD), 1,12-diaminododecane]
effect on [Ca2+]i [2]: causes a prompt fall in [Ca^2+ ]i
effect on extracellular Ca2+-elicited increases in [Ca2+]i [2]: depresses steady-state, but not transient increases in [Ca^2+ ]i

effect on basal or extracellular Ca2+-evoked [Ca2+]i ([1]; 1 μM): None of the dihydropyridines tested
SMILES: CC1=C(C(=O)OC(C)C)[C@H](c2cccc3nonc23)C([N+](=O)[O-])=C(C)N1 [(+) 202-791]

effect on basal or extracellular Ca2+-evoked [Ca2+]i ([1]; 1 μM): None of the dihydropyridines tested
SMILES: CC1=C(C(=O)OC(C)C)[C@@H](c2cccc3nonc23)C([N+](=O)[O-])=C(C)N1 [(-) 202-791]

SMILES: N=C(N)NCCC[C@H](N)C(=O)NCCCNCCCNCCCCCNC(=O)[C@H](CC(N)=O)NC(=O)Cc1ccc(O)cc1O [Argiotoxin-636]
effect on response to extracellular Ca2+ [1]: did potentiate cytosolic Ca^2+
effect on [Ca2+]i ([1]; 400 μM): did not elicit increases in [Ca^2+ ]
effect on [Ca2+]i ([1]; 100 to 300 μM): had no effect

SMILES: N=C(N)NCCC[C@H](N)C(=O)NCCCNCCCNCCCCCNC(=O)[C@H](CC(N)=O)NC(=O)Cc1c[nH]c2cccc(O)c12 [Argiotoxin-659]
effect on [Ca2+]i ([1]; 100 to 300 μM): evoked transient increases in [Ca^2+ ]i

effect on basal or extracellular Ca2+-evoked [Ca2+]i ([1]; 1 μM): None of the dihydropyridines tested
SMILES: COC(=O)C1=C(C)NC(C)=C([N+](=O)[O-])C1c1ccccc1C(F)(F)F (stereo not shown) [BAY K 8644]

relative potency, in words [1]: nearly as potent as the parent molecule
SMILES: CC(NCCCc1ccccc1)c1ccccc1 (stereo not shown) [Compound 1D]

SMILES: CC(N[C@H](C)c1ccccc1)c1cccc2ccccc12 (stereo partly shown) [Compound 4G]
EC50 ([1]; Table 8): 1.8 µM

SMILES: CC(N[C@H](C)c1ccccc1)c1ccc2ccccc2c1 (stereo partly shown) [Compound 4H]
EC50 ([1]; Table 8): ≥ 3 µM

effect on inward currents [3]: blocks the currents
SMILES: O=C(O)c1c2ccccc2cc2ccccc12 [Compound 9AC]

EC50 ([1]; Table 8): 0.26 µM
SMILES: CC(C)c1ccc([C@@H](C)N[C@H](C)c2cccc3ccccc23)cc1 [Compound 14L]

EC50 ([1]; Table 8): 0.38 µM
SMILES: COc1cccc([C@@H](C)N[C@H](C)c2cccc3ccccc23)c1 [Compound 14Y]

SMILES: C[C@@H](NCc1ccc(C(C)(C)C)cc1)c1cccc2ccccc12 [Compound 15G]
EC50 ([1]; Table 8): ~0.5 µM

SMILES: CC(NCCCc1ccccc1)C1CCCCC1 (stereo not shown) [Compound 20V]
EC50 ([1]; Table 7): > 100 µM

SMILES: CNc1ccc2oc(C[C@H]3O[C@@]4(CC[C@H]3C)O[C@H]([C@H](C)C(=O)c3ccc[nH]3)[C@H](C)C[C@H]4C)nc2c1C(=O)O [Compound A23187]
effect on inward currents [3]: activated

effect on [Ca2+]i at low extracellular Ca2+ [1]: evoked no change
SMILES: COc1ccc(CCN(C)CCCC(C#N)(c2cc(OC)c(OC)c(OC)c2)C(C)C)cc1OC [Compound D-600]
mode of action at the calcium receptor [1]: partial agonists or allosteric activators
effect on mobilization elicited by extracellular divalent cations [1]: potentiated the mobilization of intracellular Ca^2+
effect on influx of extracellular Ca2+ ([2]; 100 μM): blocked the influx of extracellular Ca^2+

SMILES: O=C(O)CN(CCOCCOCCN(CC(=O)O)CC(=O)O)CC(=O)O [EGTA]
effect on inward currents [3]: prevents oocytes expressing the calcium receptor from responding

SMILES: NC[C@H]1O[C@H](O[C@H]2[C@H](O)[C@@H](O[C@H]3O[C@H](CO)[C@@H](O)[C@H](N)[C@H]3O)[C@H](N)C[C@@H]2N)[C@H](O)[C@@H](O)[C@@H]1O [Kanamycin]
effect on [Ca2+]i ([1]; 500 μM): without effect

SMILES: NCCCNCCCCNCCCNCCCN(O)CCCNC(=O)Cc1c[nH]c2ccccc12 [NPS 017]
effect on Cl- current ([3]; BoPCaR 1-injected oocytes): caused oscillatory increases in the Cl^-
effect in control oocytes ([3]; uninjected, water or rat liver mRNA oocytes): Neither NPS 017 nor NPS 019 elicited changes in Cl^-

effect on [Ca2+]i [1]: mobilize intracellular Ca^2+
SMILES: NCCCN(CCCN)CCCN(CCCN)CCCCN(CCCN)CCCN(CCCN)CCCN [NPS 381, N^1,N^1,N^5,N^10,N^14,N^14-hexakis-(3-aminopropyl) spermine]

SMILES: COc1ccc(CC(=O)NCCCCCCCCCCCCN)cc1OC [NPS 384]
effect on [Ca2+]i ([1]; NPS 384 300 μM): did not evoke an increase in [Ca^2+ ]i; also recorded: fails to do so
effect on influx of extracellular Ca2+ ([2]; 300 μM): blocked influx of extracellular Ca^2+
effect on [Ca2+]i [2]: causes a prompt fall in [Ca^2+ ]i
effect on extracellular Ca2+-elicited increases in [Ca2+]i [2]: depresses steady-state, but not transient increases in [Ca^2+ ]i

concentration eliciting responses ([3]; BoPCaR 1-injected oocytes, only at much higher concentrations): 100 µM
SMILES: COc1cccc([C@H](C)NCCCc2ccccc2Cl)c1 [NPS S-568]

SMILES: CCCC(=O)N[C@@H](Cc1ccc(O)cc1)C(=O)NCCCCNCCCNCCCN [Philanthotoxin-433]
effect on [Ca2+]i ([1]; 500 μM): without effect

effect on [Ca2+]i at low extracellular Ca2+ [1]: evoked no change
SMILES: CCN(CC)CCCCCCCCOC(=O)c1cc(OC)c(OC)c(OC)c1 [TMB-8]
mode of action at the calcium receptor [1]: partial agonists or allosteric activators
effect on mobilization elicited by extracellular divalent cations [1]: potentiated the mobilization of intracellular Ca^2+; also recorded: potentiated transient increases in [Ca^2+ ]i
effect on influx of extracellular Ca2+ ([2]; 100 μM): blocked the influx of extracellular Ca^2+

effect on [Ca2+]i [1]: mobilize intracellular Ca^2+
SMILES: NCCNCCNCCNCCN [Tetraethylenepentamine (TEPA), Tetraethylenepentamine]

SMILES: NCCNCCNCCN [Triethylenetramine (TETA), triethylenetetramine]
effect on [Ca2+]i [1]: mobilize intracellular Ca^2+

effect on [Ca2+]i ([1]; 500 μM): without effect
SMILES: CCC[C@@H]1C[C@@H](C(=O)N[C@@H]([C@H]2O[C@H](SC)[C@H](O)[C@@H](O)[C@H]2O)[C@@H](C)O)N(C)C1 [lincomycin]

SMILES: COC(=O)C1=C(C)NC(C)=C(C(=O)OC)C1c1ccccc1[N+](=O)[O-] [nifedipine]
effect on basal or extracellular Ca2+-evoked [Ca2+]i [1]: None of the dihydropyridines tested

effect on basal or extracellular Ca2+-evoked [Ca2+]i ([1]; 1 μM): None of the dihydropyridines tested
SMILES: CCOC(=O)C1=C(C)NC(C)=C(C(=O)OC)C1c1cccc([N+](=O)[O-])c1 (stereo not shown) [nitrendipine]
